Patent US20080131500A1, “METHODS AND COMPOSITIONS FOR RAPID INACTIVATION OF PROTEINS” (The Board of Regents of The University of Texas System, priority 2006, published 2008)
Like-named read-outs stand apart in the source and are kept apart here.

How the values were obtained:
[1] = biological target: T1, hirudin (Hirudo medicinalis, UniProt P01050); assay: Reduction of native hirudin in 1N NaOH, 50 mM DTT with added denaturant (GdnCl or GdnSCN), HPLC analysis; format: biochemical
Procedure: FIG. 3. […] N indicates native hirudin.
Denaturant is known to destabilize the conformation of native protein and decrease the covalent stability of disulfide bonds against reduction. In addition to the optimized pH (13.5) for hirudin reduction described above, denaturant (GdnCl and GdnSCN) was included to further accelerate the rate of reduction. Native hirudin (N) was incubated at 22° C. in solutions comprising 1N NaOH, 50 mM DTT and increasing concentrations of GdnCl (0.2M-2M) or GdnSCN (0.1M-I M). […] In the presence of 1M of GdnSCN, the reduction of hirudin completes within one minute.

[2] = biological target: T1, hirudin; assay: Reduction of native hirudin by DTT at pH 9.0, 11.0 and 13.5, HPLC analysis; format: biochemical; settings: for rate constant of hirudin reduction: 50 mM DTT, 22° C.
Procedure: FIG. 2. […] N-Hirudin (1 mg/ml) was reduced with 50 mM DTT at 22° C. in solutions of pH 9.0, pH 11.0 and pH 13.5. The buffers of pH 9.0 and 11.0 were prepared by the titration of 0.1N NaHC03 and 0.1N NaOH. The samples were quenched at different time points by acidification and analyzed by HPLC using the following conditions. Solvent A for HPLC was water containing 0.1% trifluoroacetic acid. Solvent B was acetonitrile/water (9:1, by volume) containing 0.086% trifluoroacetic acid. The gradient was 27% to 36% solvent B linear in 25 min. The flow rate was 0.5 ml/min. The column was Zorbax 300SB C-18 for peptides and proteins, 4.6 mm, 5 pm. Column temperature was 22° C. N indicates native hirudin.
Reduction of protein disulfide bonds by a reducing agent (such as β-mercaptoethanol, dithiothreitol or tris-carboxyethyl-phosphine) is typically performed at pH 8.0-8.5. […] Hirudin (a 3-disulfide protein) is used as an example here. Native hirudin was incubated with 20 mM, 50 mM or 100 mM of DTT at 22° C. in solutions of pH 9.0, 11.0 and 13.5 respectively. […] Thus, increase of pH from 9.0 to 13.5 accelerates the rate of reduction of hirudin at room temperature by approximately 30-fold. Similar effect of pH was also observed at DTT concentrations of 20 mM and 100 mM.

[3] = cited from earlier work

T1 sequence (P01050 whole entry, looked up): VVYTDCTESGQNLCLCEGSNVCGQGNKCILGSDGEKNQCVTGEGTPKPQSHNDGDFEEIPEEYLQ

For `Cl.N=C(N)N` [GdnCl, guanidinium chloride], the “potency of 6M GdnCl relative to 1M GdnSCN” value ([1]; 6M GdnCl versus 1M GdnSCN) was “about 3 fold” and the “potency relative to GdnSCN” value ([1]; acceleration of hirudin reduction in 1N NaOH, 50 mM DTT) was “approximately 50%”.
In the case of `O[C@H](CS)[C@H](O)CS` (racemic) [DTT, dithiothreitol], the “rate constant of hirudin reduction” value ([2]; pH 9.0) is reported as 0.00377 min⁻¹, the “rate constant of hirudin reduction” value ([2]; pH 11.0) is reported as 0.0235 min⁻¹ and the “acceleration of the rate of reduction of hirudin” value ([2]; increase of pH from 9.0 to 13.5, room temperature) is reported as “approximately 30 fold”.
For hirudin, the “hirudin in a denatured state” value ([3]; 6 M GdnCl) is listed as 67% and the “hirudin in a denatured state” value ([3]; 8 M urea) is listed as 14%.
In the case of `N#CS.N=C(N)N` [GdnSCN, guanidine thiocyanate], the “time to complete reduction of hirudin” value ([1]; 1M GdnSCN in 1N NaOH, 50 mM DTT, 22° C.) is reported as “one”, the “further acceleration of the reduction of hirudin” value ([1]; inclusion of 0.2M GdnSCN in 1N NaOH, 50 mM DTT, 22° C.) is reported as 2.5 fold and the “further acceleration of the reduction of hirudin” value ([1]; inclusion of 0.5M GdnSCN in 1N NaOH, 50 mM DTT, 22° C.) is reported as 5 fold.
